Data taken from ChEMBL document CHEMBL5346907, “Discovery of a novel oral type Ⅰ CDK8 inhibitor against acute myeloid leukemia” (Eur J Med Chem, 2023).
Activity calls are given as the source filed them. No cut-off for these calls is given here.

Columns and labels:
[1] = biological target: Macrophage colony-stimulating factor 1 receptor (Homo sapiens) (UniProt P07333); assay: Inhibition of CSF1R (unknown origin) at 1 uM preincubated for 10 mins followed by substrate addition measured for 60 to 120 mins by HTRF assay relative to control; conditions: time 70-130 min
[2] = Half life in Sprague-Dawley rat at 2 mg/kg, iv; assay type: ADME, organism-based; conditions: in vivo
[3] = biological target: Ephrin type-B receptor 2 (Homo sapiens) (UniProt P29323); assay: Inhibition of EPHB2 (unknown origin) at 1 uM preincubated for 10 mins followed by substrate addition measured for 60 to 120 mins by HTRF assay relative to control; conditions: time 70-130 min
[4] = biological target: CDK7/Cyclin H/MNAT1 (Homo sapiens) (UniProt P51946+P50613+P51948); assay: Inhibition of CDK7/Cyclin H/MAT1 (unknown origin) at 1 uM preincubated for 10 mins followed by substrate addition measured for 60 to 120 mins by HTRF assay relative to control; assay type: protein-complex assay; conditions: time 70-130 min
[5] = tested on: C1498; assay: Antitumor activity against mouse C1498 cells allografted in AML Balb/C mouse model assessed as decrease in Ki67 expression administered orally daily for 15 days measured after 3 weeks by IHC analysis; assay type: functional, cell-based; conditions: dose 40-80 mg/kg, route po, time 15.0 day
[6] = tested on: MGC-803; assay: Antiproliferative activity against human MGC-803 cells incubated for 48 hrs by CCK8 assay; assay type: functional
[7] = biological target: Ephrin type-A receptor 1 (Homo sapiens) (UniProt P21709); assay: Inhibition of EPHA1 (unknown origin) at 1 uM preincubated for 10 mins followed by substrate addition measured for 60 to 120 mins by HTRF assay relative to control; conditions: time 70-130 min
Ephrin type-A receptor 1 (Homo sapiens), sequence (P21709 whole entry): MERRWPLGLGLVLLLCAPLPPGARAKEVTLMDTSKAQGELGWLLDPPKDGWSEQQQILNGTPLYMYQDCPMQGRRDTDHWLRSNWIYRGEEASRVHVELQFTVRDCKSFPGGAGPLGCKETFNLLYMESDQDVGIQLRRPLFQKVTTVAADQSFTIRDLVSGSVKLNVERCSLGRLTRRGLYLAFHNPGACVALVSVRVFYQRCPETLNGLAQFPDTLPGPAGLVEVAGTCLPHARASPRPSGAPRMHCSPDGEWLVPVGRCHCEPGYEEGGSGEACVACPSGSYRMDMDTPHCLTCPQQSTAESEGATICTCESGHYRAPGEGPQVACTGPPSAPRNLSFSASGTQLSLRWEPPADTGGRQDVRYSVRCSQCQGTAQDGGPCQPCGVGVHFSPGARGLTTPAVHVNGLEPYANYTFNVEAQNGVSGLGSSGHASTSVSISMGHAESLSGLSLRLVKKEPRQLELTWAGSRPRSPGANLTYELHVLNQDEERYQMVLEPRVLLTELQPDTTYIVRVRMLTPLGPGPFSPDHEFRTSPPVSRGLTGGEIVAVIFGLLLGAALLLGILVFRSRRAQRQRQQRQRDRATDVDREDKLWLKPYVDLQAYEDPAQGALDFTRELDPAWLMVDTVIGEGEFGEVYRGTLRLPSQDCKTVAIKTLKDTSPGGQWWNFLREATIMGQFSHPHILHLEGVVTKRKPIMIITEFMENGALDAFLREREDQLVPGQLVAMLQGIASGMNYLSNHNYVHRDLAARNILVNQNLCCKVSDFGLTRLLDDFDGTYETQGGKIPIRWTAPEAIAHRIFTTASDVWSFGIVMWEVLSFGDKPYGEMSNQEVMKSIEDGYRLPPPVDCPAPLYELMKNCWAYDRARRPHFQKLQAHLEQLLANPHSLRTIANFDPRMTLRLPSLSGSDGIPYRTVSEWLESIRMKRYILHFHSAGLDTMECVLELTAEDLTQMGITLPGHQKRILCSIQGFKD

[8] = tested on: C1498; assay: Downregulation of STAT1 S727 expression in mouse C1498 cells allografted in AML Balb/C mouse model administered orally daily for 15 days measured after 3 weeks by Western blot analysis; assay type: functional, cell-based; conditions: dose 40-80 mg/kg, route po, time 15.0 day
[9] = Acute toxicity in C57BL/6 mouse assessed as histopathological change in kidney at 2000 mg/kg, IG measured for 14 days by H&E staining based analysis; assay type: organism-based; conditions: in vivo, po, 336 h, time 14 day
[10] = AUC (0 to infinity) in Sprague-Dawley rat at 2 mg/kg, iv; assay type: ADME, organism-based; design: dose 2 mg/kg, route iv; conditions: in vivo
[11] = biological target: Ephrin type-A receptor 7 (Homo sapiens) (UniProt Q15375); assay: Inhibition of EPHA7 (unknown origin) at 1 uM preincubated for 10 mins followed by substrate addition measured for 60 to 120 mins by HTRF assay relative to control; conditions: time 70-130 min
[12] = biological target: Cyclin-dependent kinase 5/CDK5 activator 1 (Homo sapiens) (UniProt Q00535+Q15078); assay: Inhibition of CDK5/p35NCK (unknown origin) at 1 uM preincubated for 10 mins followed by substrate addition measured for 60 to 120 mins by HTRF assay relative to control; assay type: protein-complex assay; conditions: time 70-130 min
Cyclin-dependent kinase 5/CDK5 activator 1 (Homo sapiens), sequence (Q00535 whole entry): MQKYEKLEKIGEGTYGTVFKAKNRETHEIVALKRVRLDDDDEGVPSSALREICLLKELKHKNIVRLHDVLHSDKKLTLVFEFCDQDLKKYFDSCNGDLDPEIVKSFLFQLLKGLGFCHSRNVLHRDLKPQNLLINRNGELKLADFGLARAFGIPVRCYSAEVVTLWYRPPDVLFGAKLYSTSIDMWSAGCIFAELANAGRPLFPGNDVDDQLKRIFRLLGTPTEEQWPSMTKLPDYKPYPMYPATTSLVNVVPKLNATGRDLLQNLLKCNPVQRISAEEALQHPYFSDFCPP
Cyclin-dependent kinase 5/CDK5 activator 1 (Homo sapiens), sequence (Q15078 99-307 partner limits assumed): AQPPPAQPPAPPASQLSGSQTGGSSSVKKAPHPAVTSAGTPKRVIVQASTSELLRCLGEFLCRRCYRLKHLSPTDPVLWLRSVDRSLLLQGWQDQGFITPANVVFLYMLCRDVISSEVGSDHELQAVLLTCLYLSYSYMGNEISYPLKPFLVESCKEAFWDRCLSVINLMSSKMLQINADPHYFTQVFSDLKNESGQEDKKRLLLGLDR

[13] = biological target: Tyrosine-protein kinase receptor TYRO3 (Homo sapiens) (UniProt Q06418); assay: Inhibition of TYRO3 (unknown origin) at 1 uM preincubated for 10 mins followed by substrate addition measured for 60 to 120 mins by HTRF assay relative to control; conditions: time 70-130 min
[14] = biological target: Tyrosine-protein kinase ABL1 (Homo sapiens) (UniProt P00519); assay: Inhibition of ABL1 (unknown origin) at 1 uM preincubated for 10 mins followed by substrate addition measured for 60 to 120 mins by HTRF assay relative to control; conditions: time 70-130 min
[15] = tested on: HCT-116; assay: Antiproliferative activity against human HCT-116 cells incubated for 48 hrs by CCK8 assay; assay type: functional
[16] = organism: Homo sapiens; assay: Inhibition of FYN a (unknown origin) at 1 uM preincubated for 10 mins followed by substrate addition measured for 60 to 120 mins by HTRF assay relative to control; conditions: time 70-130 min
[17] = tested on: HL-60; assay: Antiproliferative activity against human HL-60 cells incubated for 48 hrs by CCK8 assay; assay type: functional
[18] = biological target: Ephrin type-B receptor 1 (Homo sapiens) (UniProt P54762); assay: Inhibition of EPHB1 (unknown origin) at 1 uM preincubated for 10 mins followed by substrate addition measured for 60 to 120 mins by HTRF assay relative to control; conditions: time 70-130 min
Ephrin type-B receptor 1 (Homo sapiens), sequence (P54762 whole entry): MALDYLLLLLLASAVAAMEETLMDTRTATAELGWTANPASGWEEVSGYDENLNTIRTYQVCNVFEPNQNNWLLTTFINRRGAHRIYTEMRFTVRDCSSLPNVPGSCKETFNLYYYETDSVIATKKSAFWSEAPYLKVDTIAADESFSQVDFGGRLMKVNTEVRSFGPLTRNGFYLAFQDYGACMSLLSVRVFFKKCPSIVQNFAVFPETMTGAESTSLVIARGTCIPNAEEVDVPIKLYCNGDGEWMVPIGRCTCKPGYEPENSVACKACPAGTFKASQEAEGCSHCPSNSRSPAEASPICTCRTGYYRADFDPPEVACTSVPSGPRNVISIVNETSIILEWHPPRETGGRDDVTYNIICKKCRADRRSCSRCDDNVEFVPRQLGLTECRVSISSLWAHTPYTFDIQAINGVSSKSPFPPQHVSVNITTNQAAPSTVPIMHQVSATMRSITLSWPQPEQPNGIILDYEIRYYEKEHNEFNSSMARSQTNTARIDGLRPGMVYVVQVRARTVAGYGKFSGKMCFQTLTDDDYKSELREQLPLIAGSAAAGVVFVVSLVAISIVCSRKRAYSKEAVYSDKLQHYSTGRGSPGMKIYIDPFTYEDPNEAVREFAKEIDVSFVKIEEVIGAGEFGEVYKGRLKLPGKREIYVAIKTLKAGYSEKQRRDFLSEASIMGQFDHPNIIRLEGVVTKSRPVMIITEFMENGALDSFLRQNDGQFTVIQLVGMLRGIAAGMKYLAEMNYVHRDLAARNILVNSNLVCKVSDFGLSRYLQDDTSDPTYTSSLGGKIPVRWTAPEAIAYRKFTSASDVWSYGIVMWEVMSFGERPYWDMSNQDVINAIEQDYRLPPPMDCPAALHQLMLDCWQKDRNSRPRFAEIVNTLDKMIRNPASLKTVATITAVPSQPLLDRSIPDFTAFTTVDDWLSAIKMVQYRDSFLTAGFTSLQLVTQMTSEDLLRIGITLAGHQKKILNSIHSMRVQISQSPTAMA

[19] = biological target: Tyrosine-protein kinase Lck (Homo sapiens) (UniProt P06239); assay: Inhibition of LCK (unknown origin) at 1 uM preincubated for 10 mins followed by substrate addition measured for 60 to 120 mins by HTRF assay relative to control; conditions: time 70-130 min
Tyrosine-protein kinase Lck (Homo sapiens), sequence (P06239 2-509 limits assumed): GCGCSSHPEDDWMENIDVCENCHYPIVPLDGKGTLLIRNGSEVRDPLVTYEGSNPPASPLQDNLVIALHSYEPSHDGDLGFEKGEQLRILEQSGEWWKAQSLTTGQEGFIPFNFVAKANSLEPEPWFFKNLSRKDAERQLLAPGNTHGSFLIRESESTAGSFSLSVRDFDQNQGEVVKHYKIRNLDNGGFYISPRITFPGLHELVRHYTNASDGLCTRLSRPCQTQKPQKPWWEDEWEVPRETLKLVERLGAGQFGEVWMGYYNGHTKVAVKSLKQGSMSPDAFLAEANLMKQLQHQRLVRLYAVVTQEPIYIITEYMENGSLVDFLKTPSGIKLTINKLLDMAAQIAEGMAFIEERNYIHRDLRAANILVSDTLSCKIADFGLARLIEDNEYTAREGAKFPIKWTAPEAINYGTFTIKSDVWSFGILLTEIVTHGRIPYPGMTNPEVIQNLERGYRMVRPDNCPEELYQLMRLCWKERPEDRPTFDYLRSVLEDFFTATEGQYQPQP

[20] = MRT in Sprague-Dawley rat at 2 mg/kg, iv; assay type: ADME, organism-based; conditions: in vivo
[21] = biological target: Cyclin-dependent kinase 8 (Homo sapiens, UniProt P49336); assay: Binding affinity to CDK8 in human HCT-116 cells upto 4 uM incubated for 12 hrs by biotin pull down based Western blot analysis; assay type: cell-based
Cyclin-dependent kinase 8, sequence (P49336 whole entry): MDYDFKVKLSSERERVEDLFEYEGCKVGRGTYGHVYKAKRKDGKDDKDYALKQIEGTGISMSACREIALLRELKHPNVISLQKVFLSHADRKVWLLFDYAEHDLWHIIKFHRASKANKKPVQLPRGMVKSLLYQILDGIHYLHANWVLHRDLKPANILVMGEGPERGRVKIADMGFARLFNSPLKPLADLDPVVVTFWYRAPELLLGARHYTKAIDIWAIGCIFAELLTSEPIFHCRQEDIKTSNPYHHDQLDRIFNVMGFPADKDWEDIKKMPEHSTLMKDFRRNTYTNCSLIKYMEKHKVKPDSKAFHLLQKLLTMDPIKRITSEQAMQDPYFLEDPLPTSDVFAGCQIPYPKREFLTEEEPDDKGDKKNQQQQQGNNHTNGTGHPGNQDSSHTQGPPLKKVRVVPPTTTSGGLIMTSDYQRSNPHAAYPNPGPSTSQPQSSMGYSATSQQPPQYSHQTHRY

[22] = tested on: HL-60; assay: Induction of apoptosis in human HL-60 cells assessed as late apoptotic cells at 10 uM incubated for 48 hrs by annexin V-FITC/PI staining based flow cytometry (reference value: 1.07 %); assay type: functional
[23] = biological target: Insulin-like growth factor 1 receptor (Homo sapiens) (UniProt P08069); assay: Inhibition of IGF1R (unknown origin) at 1 uM preincubated for 10 mins followed by substrate addition measured for 60 to 120 mins by HTRF assay relative to control; conditions: time 70-130 min
[24] = biological target: Tyrosine-protein kinase TXK (Homo sapiens) (UniProt P42681); assay: Inhibition of TXK (unknown origin) at 1 uM preincubated for 10 mins followed by substrate addition measured for 60 to 120 mins by HTRF assay relative to control; conditions: time 70-130 min
Tyrosine-protein kinase TXK (Homo sapiens), sequence (P42681 whole entry): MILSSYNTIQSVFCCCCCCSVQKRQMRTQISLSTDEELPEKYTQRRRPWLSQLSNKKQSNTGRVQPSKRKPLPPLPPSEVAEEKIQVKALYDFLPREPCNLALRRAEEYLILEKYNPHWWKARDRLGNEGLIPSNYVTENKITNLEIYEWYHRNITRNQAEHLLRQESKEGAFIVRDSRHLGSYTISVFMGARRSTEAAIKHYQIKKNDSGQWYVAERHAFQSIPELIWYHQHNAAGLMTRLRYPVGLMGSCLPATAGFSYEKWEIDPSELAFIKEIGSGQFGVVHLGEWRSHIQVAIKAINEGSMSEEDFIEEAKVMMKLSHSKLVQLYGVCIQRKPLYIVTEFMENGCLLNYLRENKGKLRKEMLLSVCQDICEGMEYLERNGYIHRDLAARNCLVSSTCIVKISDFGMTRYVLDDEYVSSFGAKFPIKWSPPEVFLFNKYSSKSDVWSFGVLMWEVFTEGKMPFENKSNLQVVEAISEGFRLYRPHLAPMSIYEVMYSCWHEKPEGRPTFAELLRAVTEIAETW

[25] = tested on: HL-60; assay: Induction of apoptosis in human HL-60 cells assessed as late apoptotic cells at 5 uM incubated for 48 hrs by annexin V-FITC/PI staining based flow cytometry (reference value: 1.07 %); assay type: functional
[26] = biological target: Protein-tyrosine kinase 6 (Homo sapiens) (UniProt Q13882); assay: Inhibition of BRK (unknown origin) at 1 uM preincubated for 10 mins followed by substrate addition measured for 60 to 120 mins by HTRF assay relative to control; conditions: time 70-130 min
[27] = tested on: SW480; assay: Antiproliferative activity against human SW480 cells incubated for 48 hrs by CCK8 assay; assay type: functional
[28] = Half life in Sprague-Dawley rat at 10 mg/kg, po; assay type: ADME, organism-based; conditions: in vivo
[29] = tested on: HL-60; assay: Induction of apoptosis in human HL-60 cells assessed as necrotic cells at 5 uM incubated for 48 hrs by annexin V-FITC/PI staining based flow cytometry (reference value: 0.26 %); assay type: functional
[30] = biological target: Ephrin type-A receptor 3 (Homo sapiens) (UniProt P29320); assay: Inhibition of EPHA3 (unknown origin) at 1 uM preincubated for 10 mins followed by substrate addition measured for 60 to 120 mins by HTRF assay relative to control; conditions: time 70-130 min
Ephrin type-A receptor 3 (Homo sapiens), sequence (P29320 whole entry): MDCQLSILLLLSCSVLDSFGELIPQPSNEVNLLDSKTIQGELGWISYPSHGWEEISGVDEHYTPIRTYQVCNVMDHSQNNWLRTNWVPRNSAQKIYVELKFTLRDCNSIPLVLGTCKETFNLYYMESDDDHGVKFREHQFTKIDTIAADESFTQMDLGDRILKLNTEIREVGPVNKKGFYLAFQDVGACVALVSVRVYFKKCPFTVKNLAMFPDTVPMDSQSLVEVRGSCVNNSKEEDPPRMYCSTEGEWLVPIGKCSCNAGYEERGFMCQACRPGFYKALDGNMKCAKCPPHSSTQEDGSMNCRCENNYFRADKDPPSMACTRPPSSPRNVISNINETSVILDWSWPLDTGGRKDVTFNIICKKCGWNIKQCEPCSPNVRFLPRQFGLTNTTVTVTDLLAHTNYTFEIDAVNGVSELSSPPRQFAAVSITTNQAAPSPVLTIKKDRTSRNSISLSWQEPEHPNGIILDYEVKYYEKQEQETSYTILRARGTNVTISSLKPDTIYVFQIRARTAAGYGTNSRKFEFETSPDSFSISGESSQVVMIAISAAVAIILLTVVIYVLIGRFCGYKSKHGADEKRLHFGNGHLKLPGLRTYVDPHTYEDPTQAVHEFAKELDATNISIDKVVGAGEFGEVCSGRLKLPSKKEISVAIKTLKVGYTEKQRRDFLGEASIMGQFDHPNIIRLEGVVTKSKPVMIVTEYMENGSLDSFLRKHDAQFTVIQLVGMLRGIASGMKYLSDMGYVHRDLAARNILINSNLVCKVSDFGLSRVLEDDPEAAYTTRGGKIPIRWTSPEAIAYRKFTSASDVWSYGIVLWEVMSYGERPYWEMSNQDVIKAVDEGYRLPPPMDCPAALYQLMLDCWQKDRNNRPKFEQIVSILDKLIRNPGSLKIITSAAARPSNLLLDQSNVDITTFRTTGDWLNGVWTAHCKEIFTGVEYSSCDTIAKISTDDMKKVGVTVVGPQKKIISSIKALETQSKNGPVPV

[31] = biological target: Tyrosine-protein kinase SYK (Homo sapiens) (UniProt P43405); assay: Inhibition of SYK (unknown origin) at 1 uM preincubated for 10 mins followed by substrate addition measured for 60 to 120 mins by HTRF assay relative to control; conditions: time 70-130 min
[32] = tested on: C1498; assay: Antitumor activity against mouse C1498 cells allografted in AML Balb/C mouse model assessed as reduction in tumor growth at 40 to 80 mg/kg, po administered daily for 15 days measured on every 2 days; assay type: functional, organism-based; conditions: dose 40-80 mg/kg, time 15.0 day
[33] = tested on: HCT-116; assay: Downregulation of STAT5 S726 phosphorylation in human HCT-116 cells incubated for 12 hrs by Western blot analysis; assay type: functional, cell-based; conditions: dose 1-10 µM

NC(=O)c1cccc(-c2cnc3[nH]ccc3c2)c1
inhibition [1]: 0%
half-life [2]: 0.81 h
inhibition [3]: 0%
inhibition [4]: 18.9%
Activity [5]: Dose-Dependent Effect
GI50 [6]: > 50 µM
inhibition [7]: 0%
Activity [8]: Dose-Dependent Effect
Activity [9]: Non-Toxic
AUC(0-inf) [10]: 310 ng·h/mL
inhibition [11]: 0%
inhibition [12]: 15.8%
inhibition [13]: 7%
inhibition [14]: 0%
GI50 [15]: > 50 µM
inhibition [16]: 0%
GI50 [17]: 1 µM
inhibition [18]: 0%
inhibition [19]: 1.59%
MRT [20]: 1.5 h
Activity [21]: Active
Activity [22]: 2.43%
inhibition [23]: 7.77%
inhibition [24]: 0%
Activity [25]: 1.45%
inhibition [26]: 12.7%
GI50 [27]: > 50 µM
half-life [28]: 1.4 h
Activity [29]: 8.48%
inhibition [30]: 0%
inhibition [31]: 4.7%
Activity [32]: Active
Activity [33]: Dose-Dependent Effect
